Source: publication PMC11061149, “Protein mimetic 2D FAST rescues alpha synuclein aggregation mediated early and post disease Parkinson’s phenotypes” (Nature Communications, 2024)
Several values for one entry are separate records, joined by “and”; a condition that tells them apart may be missing. Equal values may be shown once.

Assays:
αS = target: T1, αS (Homo sapiens, UniProt P37840); assay: Isothermal titration calorimetry (ITC); format: binding; details: ligand titrated into 15 μM αS in PBS; read-out: dissociation constant (Kd)
T1 construct: made in house; host or cells: E. coli BL21(DE3)
Procedure: The ITC experiments were performed in a NANO-ITC (TA Instruments, New Castle, DE). For each ITC experiment, a solution of 250 μM NS132 in PBS was serially titrated (2 μL injections […] via rotary syringe, stirring speed at 300 rpm) into a sample cell containing 350 μL of 15 μM αS in the same buffer conditions at 300 sec intervals. The heat associated with each injection was calculated by integrating each heat burst curve using NanoAnalyze software (TA Instruments, New Castle, DE). The associated heat for each injection of NS132 in αS solution was corrected by subtracting heat resulted from the titration of NS132 into buffer (in 1 × PBS) under identical conditions. The corrected heat values were plotted as a function of the molar ratio of NS132 to αS and the plot was fitted using a one binding site independent model available in NanoAnalyze software. The fitting was carried out using 10,000 iterations in the software without any data constraints during the fitting. The ITC titrations were conducted in triplicate and the reported thermodynamic parameters were calculated as an average of three independent experiments.

[1] = Parallel artificial membrane permeability assay (PAMPA); format: in vitro ADME
Procedure: The permeability of various ligands was assessed with a PAMPA kit (BioAssay Systems, Hayward, CA) according to a previously described protocol. Briefly, 4% lecithin solution (LS) was prepared in dodecane and 5 µL was applied to the donor plate membrane. Then, 300 μL PBS was added to the acceptor plate. Subsequently, 200 µL of ligand solutions (500 μM) and various permeability standards (high, medium, and low, 500 μM) were added to the donor plate membrane. The donor plate was placed in the acceptor plate and incubated at r.t. for 18 h. The solutions were then moved from the acceptor plate into a clear-bottom 96-well plate (Corning Inc., Corning, NY) and absorbance was recorded at 360 nm for various ligands and 275 nm for permeability standards. The permeability was calculated using Eq. (1) below, where the permeability rate, C, equals 7.72 × 10^–6, ODA is the absorbance of the acceptor solution, and ODE is the absorbance of the equilibrium standard.1 Pe=C×−ln1−ODA/ODEcm/s

[2] = test system: NL5901 worms (αS-YFP in body wall muscle cells); assay: Confocal counting of αS-YFP inclusions in NL5901 worms; format: in vivo, C. elegans; details: for number of inclusions in NL5901, individual trials: 50 µM ligand; for number of inclusions: 50 μM ligand
Procedure: In NL5901 strain, αS-YFP is expressed in the muscle cells of worms. The aggregates of αS-YFP are visible from day 4 and the maximum number of αS-YFP aggregates are visible round day 8 and day 9. The standard worm conditions were used for the culturing of various worm strains. […] The cultures of OP50 were prepared by incubating 50 mL of LB medium with OP50 18 h at 37 °C and the final OD value was adjusted to 0.5 at 600 nm. The NGM plates were prepared by treating them with 350 µL OP50 and leaving the plates at 20 °C for 3 days. […] The NGM plates (with NGM media) were used for the treatment of different worm strains with ligands. […] The NGM plates treated with ligands were prepared and used within 24 h. We used these plates to treat various disease strains for different assays. This experiment was performed based on previously described protocols with slight modifications[24],[65],[88]. […] On day two, the worms were divided into two batches. […] On day four, the ligand (10–50 µM, stock conc. = 10 mM in DMSO, DMSO from 0.1–0.5%, v/v) was added again to PLATE 3. […] For each condition, six biological replicates were performed and at least 10 technical replicates were used for each biological replicate. […] (n = 6 independent experiments and each n consisted of a minimum of ten technical replicates).

For Cc1ccc(NC(=O)c2ccc(NC(=O)c3ccc([N+](=O)[O-])c(NCCc4c[nH]c5ccccc45)n3)c(NCC3CCCCC3)n2)c(OCC(=O)O)n1 [NS132], the Kd (αS) was 1.81 ± 0.33 µM, the “cell permeability (PAMPA), comparison in words” value [1] was “lower in comparison to the PAMPA medium standard” and the “PAMPA permeability (Pe), individual trials” value ([1]; 500 μM in donor, 18 h, r.t., unit from Eq. 1) was 2.69 ×10⁻⁶ cm/s and 2.41 ×10⁻⁶ cm/s and 2.71 ×10⁻⁶ cm/s and 2.89 ×10⁻⁶ cm/s. The Papp at 18 h, 500 μM ([1]; PAMPA, 500 μM in donor, 18 h, r.t., unit from Eq. 1, read-out: PAMPA permeability (Pe), individual trials) was 2.92 ×10⁻⁶ cm/s, the “number of inclusions in NL5901, individual trials” value ([2]; Day 8) was 3 and 2 and 6 and 5 and 9 and 4 and 7 and 8 and the “number of inclusions in NL5901, individual trials” value ([2]; Day 9) was 5 and 6 and 7 and 8 and 11 and 10 and 3 and 9 and 4. For the same molecule, the number of inclusions ([2]; day eight) was ~ 5 inclusions/worm and the number of inclusions ([2]; day nine) was ~ 6.6 inclusions/worm.
